Measured values taken from PubChem BioAssay AID651818 (Broad Institute, 2012).
Records with an inconclusive call do not appear.

Test system: intracellular Trypanosoma cruzi in host cells, plate reader
Test: intracellular Trypanosoma cruzi inhibitors in host cells – cell-based, plate reader, cherry-pick samples, set 3, dose response (AID 651818)

Compound: C[C@@H]1CN([C@@H](C)CO)C(=O)c2cccc(NC(=O)c3ccncc3)c2O[C@H]1CN(C)Cc1ccc(Oc2ccccc2)cc1
- AC50: < 75 nM
